Source: patent US6172091A, “1,2-Disubstituted cyclopropanes” (Ortho-McNeil Pharmaceutical, Inc., priority 1999, dated 2001)

What was measured:
[1] = target: T1, calcium sensing receptor as found in the human parathyroid gland (Homo sapiens, UniProt P41180); assay: calcium mobilization fluorescence (FLIPR) assay, agonist mode; format: cell-based; conditions: transfected HEK 293 cells; 1 mM calcium standard; Tables 2-7; read-out: In Vitro: CS50, where potency is at 50% of the calcium standard potency
T1 construct: expressed in transfected cells; host or cells: HEK 293
T1 sequence (P41180 20-1078): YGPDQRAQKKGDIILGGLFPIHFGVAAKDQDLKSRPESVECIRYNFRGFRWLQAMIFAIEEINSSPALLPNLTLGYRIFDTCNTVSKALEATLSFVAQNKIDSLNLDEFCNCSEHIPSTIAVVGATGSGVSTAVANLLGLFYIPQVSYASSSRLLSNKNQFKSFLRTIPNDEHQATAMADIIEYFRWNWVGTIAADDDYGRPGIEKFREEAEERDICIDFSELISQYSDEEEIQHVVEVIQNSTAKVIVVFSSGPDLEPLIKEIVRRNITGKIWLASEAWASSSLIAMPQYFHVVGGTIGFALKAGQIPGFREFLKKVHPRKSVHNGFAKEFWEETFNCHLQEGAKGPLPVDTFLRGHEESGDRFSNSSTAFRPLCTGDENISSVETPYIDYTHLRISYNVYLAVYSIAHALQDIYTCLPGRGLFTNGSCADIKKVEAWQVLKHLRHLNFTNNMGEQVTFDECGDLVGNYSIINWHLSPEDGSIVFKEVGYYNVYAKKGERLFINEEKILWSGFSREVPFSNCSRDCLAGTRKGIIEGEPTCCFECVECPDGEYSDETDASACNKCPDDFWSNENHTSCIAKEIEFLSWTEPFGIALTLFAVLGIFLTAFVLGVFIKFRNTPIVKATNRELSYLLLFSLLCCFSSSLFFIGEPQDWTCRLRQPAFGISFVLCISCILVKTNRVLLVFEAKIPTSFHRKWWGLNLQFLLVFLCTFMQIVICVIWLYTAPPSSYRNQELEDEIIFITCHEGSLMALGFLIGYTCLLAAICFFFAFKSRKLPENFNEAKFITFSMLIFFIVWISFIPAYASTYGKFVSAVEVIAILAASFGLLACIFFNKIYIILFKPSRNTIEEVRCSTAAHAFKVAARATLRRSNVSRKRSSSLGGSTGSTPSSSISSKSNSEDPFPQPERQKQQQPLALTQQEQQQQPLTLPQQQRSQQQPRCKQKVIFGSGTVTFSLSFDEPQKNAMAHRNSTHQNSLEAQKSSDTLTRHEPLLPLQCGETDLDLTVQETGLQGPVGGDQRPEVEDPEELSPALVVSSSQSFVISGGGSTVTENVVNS
Procedure: (§1) In vitro potency is measured via calcium mobilization in a fluorescence assay using HEK 293 cells transfected to express the same calcium sensing receptor as found in the human parathyroid gland. In this assay calcium-sensing receptor agonists and antagonists are detected. The assay is conducted in a 96-well plate format with the use of FLIPR (fluorescent imaging plate reader; Molecular Devices, Sunnyvale, Calif.). The HEK 293 cell media is replaced with the fluorescence dye FLUO-3AM and Pluronic detergent in FLIPR assay buffer. Cells are incubated 60 min (in the dark, at room temperature), then washed with assay buffer and placed in FLIPR. Images are collected by FLIPR in the absence of test compound, then in the presence of test compound (at 25 µM) and then after addition of a calcium challenge (at 1 mM). In the agonist assay the difference between maximum and minimum fluorescence values is measured following test compound addition. Hits have a change in fluorescence greater than or equal to 50% of that seen with a 1 mM calcium standard. In the antagonist assay the difference between maximum and minimum fluorescence values is measured following the calcium challenge addition. When compared to challenge in the absence of test compound, hits reduce fluorescence by at least 50%. In vivo activity is measured via parathyroid hormone (PTH) supression by test compounds in a rat model. Compound is administered orally using 0.5% Tween 80 in distilled water as vehicle, with a volume of approximately 10 mL/kg body weight. Blood samples are taken at 15 minutes (and 4 h if required) post oral dosing. Serum PTH levels are determined with an immunoradiometric assay.
(§2) Not all compounds were tested in each of the screens. […] Each entry represents a mixture of cis and trans cyclopropanes (R,S; S,R; R,R; S,S) with R absolute configuration when R^3=CH3. Table 2 lists compounds that are trans at the cyclopropane (R,R; S,S) with R absolute configuration at the benzylamine position, or without stereochemistry at the benzylamine. Table 3 lists compounds with R,R absolute stereochemistry at the cyclopropane and a mixture of stereochemistry at the benzylamine position. 20. In vitro data in Table 1 is percent activation of the calcium-sensing receptor versus baseline. In vitro data in Tables 2-7 is expressed as a CS50, where potency is at 50% of the calcium standard potency, and the unit is μM. In vivo data represents % blood serum PTH vs. vehicle at 30 mg/kg test compound, levels measured after 15 minutes.

[2] = tested on: parathyroid hormone (PTH); assay: parathyroid hormone (PTH) suppression in a rat model; format: in vivo; conditions: 30 mg/kg test compound, levels measured after 15 minutes; for change in vivo at 30 mg/kg: Rattus norvegicus, po, 0.25 h, read-out: In Vivo: % blood serum PTH vs. vehicle; for In Vivo: % blood serum PTH vs. vehicle: oral, 30 mg/kg
Procedure: as §1, §2

| SMILES | EC50 [1] | change in vivo at 30 mg/kg [2] | In Vivo: % blood serum PTH vs. vehicle [2] |
| --- | --- | --- | --- |
| COc1cccc([C@@H](C)N(C[C@@H]2C[C@H]2c2ccccc2)C(=O)CNC(=O)OC(C)(C)C)c1 [Compound 58] | > 25 µM | -12.7% | – |
| COc1cccc([C@@H](C)NCC2CC2c2ccc(F)cc2)c1 (stereo partly shown) [Compound 23] | 13.5 µM | -55% | – |
| CC(NC[C@@H]1C[C@H]1c1ccccc1)c1cccc(F)c1 (stereo partly shown) [Compound 45] | > 25 µM | -19.6% | – |
| COc1cccc([C@@H](C)NC[C@@H]2C[C@@H]2c2ccccc2)c1 [Compound 61] | 11.2 µM | 0% | – |
| CCOc1cccc([C@@H](C)NC[C@@H]2C[C@H]2c2ccccc2)c1 [Compound 50, N-((R,R)-2-phenylcyclopropanylmethyl)-1-(R)-(3-ethoxyphenyl)ethylamine] | 11.9 µM | -57% | – |
| COc1cccc([C@@H](C)NCC2CC2c2ccccc2F)c1 (single isomer, unassigned) [Compound 19] | 9.6 µM | – | -89.2% |
| CCC(NC[C@@H]1C[C@H]1c1ccccc1)c1cccc(OC)c1 (stereo partly drawn) [Compound 43, N-((R,R)-2-phenylcyclopropanylmethyl)-1-(3-methoxyphenyl)propylamine] | > 25 µM | -6.3% | – |
| COc1cccc([C@H](C)NC[C@H]2C[C@@H]2c2ccccc2)c1 [Compound 64] | > 25 µM | -11.7% | – |
| c1ccc([C@@H]2C[C@H]2CNCc2ccncc2)cc1 (relative stereo) [Compound 30] | > 25 µM | 70.1% | – |
| CCC(=O)N(C[C@@H]1C[C@H]1c1ccccc1)[C@H](C)c1cccc(OC)c1 [Compound 54] | > 25 µM | -33.7% | – |
| COc1cccc([C@@H](C)NCC2CC2c2cccc(C(F)(F)F)c2)c1 (stereo partly shown) [Compound 15] | 13.5 µM | 4.2% | – |
| C[C@@H](NC[C@@H]1C[C@H]1c1ccccc1)c1cccc(O)c1 [Compound 48] | 8.7 µM | -41.7% | – |
| CC(NC[C@@H]1C[C@H]1c1ccccc1)c1ccc2c(c1)OCO2 (stereo partly shown) [Compound 47] | > 25 µM | -67.3% | – |
| COc1cccc(CNC[C@@H]2C[C@H]2c2ccccc2)c1 (relative stereo) [Compound 31] | > 25 µM | -26.5% | – |
| COc1cccc([C@@H](C)NC[C@@H]2C[C@H]2c2cccc(F)c2)c1 (mixture of isomers) [Compound 20, N-(trans-2-(3-fluorophenyl)cyclopropanylmethyl)-1-(R)-(3-methoxyphenyl)ethylamine] | 11 µM | – | -95.2% |
| COc1cccc([C@@H](C)NC[C@H]2C[C@H]2c2cc(C)ccc2C)c1 [Compound 69] | > 25 µM | -53.9% | – |
| COc1cccc([C@@H](C)NCC2C(C)C2c2ccccc2)c1 (stereo partly shown) [Compound 67] | 10.1 µM | -92.9% | – |
| COc1cccc([C@@H](C)NC[C@H]2C[C@@H]2c2ccccc2)c1 [Compound 60] | 12.9 µM | -42.1% | – |
| COc1cccc([C@@H](C)N(C[C@@H]2C[C@H]2c2ccccc2)C(C)=O)c1 [Compound 53] | > 25 µM | -6.4% | – |
| c1ccc([C@@H]2C[C@H]2CNCc2ccccn2)cc1 (relative stereo) [Compound 28] | > 25 µM | 72% | – |
| CC(NC[C@@H]1C[C@H]1c1ccccc1)c1cccc(Cl)c1 (stereo partly drawn) [Compound 46, N-((R,R)-2-phenylcyclopropanylmethyl)-1-(3-chlorophenyl)ethylamine] | > 25 µM | -15.9% | – |
| CC(NC[C@@H]1C[C@H]1c1ccccc1)c1cccc(C(F)(F)F)c1 (stereo partly shown) [Compound 41] | > 25 µM | -21.4% | – |
| COc1cccc([C@@H](C)NCC2CC2c2ccccc2F)c1 (single isomer, unassigned) [Compound 18] | 11.3 µM | – | -83.9% |
